According to patent publication US20070128217A1 (priority 2003, published 2007):

What was measured:
[1] = test system: recombinant human anti-SARS-CoV antibody 03-018; format: binding; design: Binding of antibody 03-018 to linear peptides of the N protein of SARS-CoV Urbani / Binding of antibody 03-018 to looped/cyclic peptides of the N protein of SARS-CoV Urbani: unit not given here
[2] = test system: control sera (pooled serum of ten healthy LUMC hospital workers; commercial negative donor pooled serum from the Dutch bloodbank); format: binding, human; design: Binding of Control serum LUMC to linear peptides / Binding of Control serum Blood-bank to linear peptides / Binding of Control serum LUMC to looped peptides / Binding of Control Serum Blood-Bank to Looped peptides / Binding of Control serum LUMC to linear peptides of the protein M of SARS-CoV Urbani / Binding of Control serum Blood-bank to linear peptides of the protein M of SARS-CoV Urbani / Binding of Control serum LUMC to looped peptides of the protein M of SARS-CoV Urbani / Binding of Control Serum Blood-Bank to Looped peptides of the protein M of SARS-CoV Urbani: unit not given here
[3] = test system: antibodies in sera from SARS patients (sera 1a, 1b, 2, 6, 37, 62, London, SARS-yellow, SARS-green); format: binding, human; design: Binding of serum 6 to linear peptides of protein X1 of SARS-CoV Urbani / Binding of serum 37 to linear peptides of protein X1 of SARS-CoV Urbani / Binding of serum 6 to looped/cyclic peptide (PEPSCAN-ELISA) / Binding of serum 37 to looped/cyclic peptide (PEPSCAN-ELISA) / Binding of serum 37 to looped/cyclic peptides of protein X1 of SARS-CoV Urbani / Binding of serum 6 to linear peptides of protein X2 / Binding of serum 37 to linear peptides of protein X2 / Binding of serum 37 to looped/cyclic peptides of protein X2 of SARS-CoV Urbani / Binding of serum 6 to linear peptides of protein M of SARS-CoV Urbani / Binding of serum 37 to linear peptides of protein M of SARS-CoV Urbani / Binding of serum 6 to looped/cyclic peptides of protein M of SARS-CoV Urbani / Binding of serum 37 to looped/cyclic peptides of protein M of SARS-CoV Urbani / Binding of serum 6 to linear peptides of protein X3 of SARS-CoV Urbani / Binding of serum 37 to linear peptides of protein X3 of SARS-CoV Urbani / Binding of serum 37 to looped/cyclic peptides of protein X3 of SARS-CoV Urbani / Binding of serum 6 to linear peptides of protein X4 of SARS-CoV Urbani / Binding of serum 37 to linear peptides of protein X4 of SARS-CoV Urbani / Binding of serum 37 to looped/cyclic peptides of protein X4 of SARS-CoV Urbani / Binding of serum 6 to linear peptides of protein X5 of SARS-CoV Urbani / Binding of serum 37 to linear peptides of protein X5 of SARS-CoV Urbani / Binding of serum 37 to looped/cyclic peptides of protein X5 of SARS-CoV Urbani / Binding of serum 6 to linear peptides of protein N of SARS-CoV Urbani / Binding of serum 37 to linear peptides of protein N of SARS-CoV Urbani / Binding of serum 6 to linear peptide (PEPSCAN-ELISA) / Binding of serum 1a to looped/cyclic peptides of protein N of SARS-CoV Urbani / Binding of serum 1b to looped/cyclic peptides of protein N of SARS-CoV Urbani / Binding of serum 2 to looped/cyclic peptides of protein N of SARS-CoV Urbani / Binding of serum 6 to looped/cyclic peptides of protein N of SARS-CoV Urbani / Binding of serum 37 to looped/cyclic peptides of protein N of SARS-CoV Urbani / Binding of serum 62 to looped/cyclic peptides of protein N of SARS-CoV Urbani / Binding of serum London to looped/cyclic peptides of protein N of SARS-CoV Urbani / Binding of serum SARS-green to looped/cyclic peptides of protein N of SARS-CoV Urbani: unit not given here
[4] = test system: rabbit serum obtained by immunizing a rabbit with the SARS-CoV strain Frankfurt 1; format: binding; design: Binding of a rabbit serum to linear peptides / Binding of a rabbit serum to looped peptides / Rabbit serum linear peptides / Rabbit serum looped peptides / Binding of a rabbit serum to linear peptides of protein N of SARS-CoV Urbani (Rabbit serum linear peptides) / Binding of a rabbit serum to looped/cyclic peptides of protein N of SARS-CoV Urbani (Rabbit serum looped peptides): unit not given here

Row | Sequence | Binding of antibody 03-018 to linear peptides of the N protein of SARS-CoV Urbani [1] | Binding of antibody 03-018 to looped/cyclic peptides of the N protein of SARS-CoV Urbani [1] | Binding of serum 1a to linear peptides of protein N of SARS-CoV Urbani [3] | Binding of serum 1a to looped/cyclic peptides of protein N of SARS-CoV Urbani [3] | Binding of serum 1b to linear peptides of protein N of SARS-CoV Urbani [3] | Binding of serum 1b to looped/cyclic peptides of protein N of SARS-CoV Urbani [3] | Binding of serum 2 to linear peptides of protein N of SARS-CoV Urbani [3] | Binding of serum 2 to looped/cyclic peptides of protein N of SARS-CoV Urbani [3] | Binding of serum 6 to linear peptides of protein N of SARS-CoV Urbani [3] | Binding of serum 6 to looped/cyclic peptides of protein N of SARS-CoV Urbani [3] | Binding of serum 37 to linear peptides of protein N of SARS-CoV Urbani [3] | Binding of serum 37 to looped/cyclic peptides of protein N of SARS-CoV Urbani [3] | Binding of serum 62 to linear peptides of protein N of SARS-CoV Urbani [3] | Binding of serum 62 to looped/cyclic peptides of protein N of SARS-CoV Urbani [3] | Binding of serum London to linear peptides of protein N of SARS-CoV Urbani [3] | Binding of serum London to looped/cyclic peptides of protein N of SARS-CoV Urbani [3] | Binding of serum SARS-green to looped/cyclic peptides of protein N of SARS-CoV Urbani [3] | Binding of serum SARS-yellow to looped/cyclic peptides of protein N of SARS-CoV Urbani [3] | Binding of a rabbit serum to linear peptides of protein N of SARS-CoV Urbani (Rabbit serum linear peptides) [4] | Binding of a rabbit serum to looped/cyclic peptides of protein N of SARS-CoV Urbani (Rabbit serum looped peptides) [4] | also measured
1 | KDNVILLNKHIDAYK | 0.1 | 0.2 | 0.3 | 0.3 | 0.2 | 0.2 | 0.3 | 0.2 | 0.3 | 0.1 | 0.7 | 0.4 | 0.8 | 0.3 | 0.6 | 0.3 | 0.1 | 0.4 | 0.2 | 0.4 | Control Serum Blood-Bank Looped peptides [2]: 0.5; Control serum Blood-bank linear peptides [2]: 0.8; Control serum LUMC linear peptides [2]: 0.7; Control serum LUMC looped peptides [2]: 0.5; Binding of serum SARS-green to linear peptides of protein N of SARS-CoV Urbani [3]: 0.4; Binding of serum SARS-yellow to linear peptides of protein N of SARS-CoV Urbani [3]: 0.8
2 | KEELRFPRGQGVPIN | 0.1 | 0.3 | 0.2 | 0.4 | 0.1 | 0.3 | 0.3 | 0.5 | 0.2 | 0.4 | 0.7 | 0.7 | 0.6 | 0.5 | 0.5 | 0.7 | 0.4 | 0.6 | 0.1 | 0.6 | Binding of Control Serum Blood-Bank to Looped peptides [2]: 0.7; Binding of Control serum Blood-bank to linear peptides [2]: 0.8; Binding of Control serum LUMC to linear peptides [2]: 0.7; Binding of Control serum LUMC to looped peptides [2]: 0.7; Binding of serum SARS-green to linear peptides of protein N of SARS-CoV Urbani [3]: 0.5; Binding of serum SARS-yellow to linear peptides of protein N of SARS-CoV Urbani [3]: 0.5
3 | KELSPRWYFYYLGTG | 0.1 | 0.3 | 0.2 | 0.4 | 0.1 | 0.2 | 0.1 | 0.4 | 0.1 | 0.3 | 0.4 | 0.7 | 0.4 | 0.5 | 0.4 | 0.4 | 0.4 | 0.3 | 0.0 | 0.4 | Binding of Control Serum Blood-Bank to Looped peptides [2]: 0.7; Binding of Control serum Blood-bank to linear peptides [2]: 0.4; Binding of Control serum LUMC to linear peptides [2]: 0.4; Binding of Control serum LUMC to looped peptides [2]: 0.6; Binding of serum SARS-green to linear peptides of protein N of SARS-CoV Urbani [3]: 0.1; Binding of serum SARS-yellow to linear peptides of protein N of SARS-CoV Urbani [3]: 0.5
4 | KGFYAEGSRGGSQAS | 0.1 | 0.2 |  | 0.3 |  | 0.2 |  | 0.3 |  | 0.2 |  | 0.4 |  | 0.3 |  | 0.3 | 0.1 | 0.1 | 0.1 | 0.1 | Binding of Control Serum Blood-Bank to Looped peptides [2]: 0.5; Binding of Control serum Blood-bank to linear peptides [2]: 0.7; Binding of Control serum LUMC to linear peptides [2]: 0.5; Binding of Control serum LUMC to looped peptides [2]: 0.4; Binding of serum 1a to linear peptide (PEPSCAN-ELISA) [3]: 0.2; Binding of serum 1b to linear peptide (PEPSCAN-ELISA) [3]: 0.1; Binding of serum 2 to linear peptide (PEPSCAN-ELISA) [3]: 0.2; Binding of serum 6 to linear peptide (PEPSCAN-ELISA) [3]: 0.2; Binding of serum 37 to linear peptide (PEPSCAN-ELISA) [3]: 0.6; Binding of serum 62 to linear peptide (PEPSCAN-ELISA) [3]: 0.5; Binding of serum London to linear peptide (PEPSCAN-ELISA) [3]: 0.4; Binding of serum SARS-green to linear peptide (PEPSCAN-ELISA) [3]: 0.2; Binding of serum SARS-yellow to linear peptide (PEPSCAN-ELISA) [3]: 0.5
